Measured values published in patent publication US11180455B2, “Compounds for the treatment of pain” (priority 2018, dated 2021).
Like-named read-outs stand apart in the source and are kept apart here.

Key:
Male Sprague-Dawley rats [1] = details: maximum pCO2 within 2 hours of administration, rat, subcutaneous
Male Sprague-Dawley rats [2] = assay type: in vivo; details: rat
human μ opioid receptor = human μ opioid receptor (Homo sapiens (Human), UniProt P35372); assay: Alternate functional activity ([35S]GTPγS binding, SPA) assay; assay type: biochemical; details: alternate [35S]GTPγS binding assay (SPA beads), CHO cell membranes expressing human μ opioid receptor
Description: The [^35S]GTPγS assay measures the functional properties of a compound by quantifying the level of G-protein activation following agonist binding in studies using stably transfected cells, and is considered to be a measure of the efficacy of a compound. Membranes from CHO (Chinese Hamster Ovary) cells that stably expressed one type of the cloned human opioid receptor human were used in the experiments. The assay buffer consisted of 50 mM Tris-HCl, pH 7.4, 3 mM MgCl2, 0.2 mM EGTA, 5 μM GDP, and 100 mM NaCl. CHO cell membranes stably expressing the human p opioid receptor were pre-incubated with scintillation proximity assay beads from PerkinElmer® (WGA PVT SPA) for 30 minutes, at 8 µg membrane and 350 µg beads in a volume of 0.1 mL per reaction. In a final volume of 0.2 mL, 11 different concentrations of each test compound were incubated with the membrane-SPA bead mixture and a final concentration of 0.020 nM [35S]GTPγS for 1.5 hours with gentle shaking. Reactions were then incubated for 5 hours. Data are the mean EC50 values±S.E.M. EC50 values (nM) for compounds 12, 16, 19, 20, 149, 151, 152, 157, 160, 161, 164-169, 172, 173, 180-197, and 199-207 are shown in Table 1.

Compound: CCOC1(c2cccc(C(N)=O)c2)C2CCCC1CNC2 [Compound 160, 3-((1R,5S,9r)-9-ethoxy-3-azabicyclo[3.3.1]nonan-9-yl)benzamide]
- <60 mmHg @ 10X CFA MEMD (Male Sprague-Dawley rats [1]): + (resulted in a maximum pCO2 value of less than 60 mmHg within 2 hours of administration)
- <60 mmHg @ 100X CFA MEMD (Male Sprague-Dawley rats [1]; 100X CFA MEMD dose): + (resulted in a maximum pCO2 value of less than 60 mmHg within 2 hours of administration)

Compound: CO[C@@]1(c2ccnc(C(N)=O)c2)[C@@H]2CCC[C@H]1CN(Cc1ncc(C)[nH]1)C2.Cl [Compound 153, 4-((1R,5S,9r)-9-methoxy-3-((5-methyl-1H-imidazol-2-yl)methyl)-3-azabicyclo[3.3.1]nonan-9-yl)picolinamide Hydrochloride]
- MEMO SC CFA (Male Sprague-Dawley rats [2]; minimum dose at which maximal reversal (MEMD) of weight bearing was achieved, subcutaneous administration): 1 mg/kg

Compound: CCOC1(c2cc(C(N)=O)ccc2F)C2CCCC1CN(C)C2 (stereo not drawn) [Compound 194]
- EC50 (human μ opioid receptor): 0.01 to 0.075 µM

Compound: COC1(c2cccc(C(N)=O)c2)C2CCCC1CN(C1CC3(COC3)C1)C2.O=C(O)C[C@H](O)C(=O)O [Compound 133, 3-((1R,5S,9r)-9-methoxy-3-(2-oxaspiro[3.3]heptan-6-yl)-3-azabicyclo[3.3.1]nonan-9-yl)benzamide (S)-2-hydroxysuccinate]
- <60 mmHg @ 10X CFA MEMD (Male Sprague-Dawley rats [1]): + (resulted in a maximum pCO2 value of less than 60 mmHg within 2 hours of administration)

Compound: CO[C@@]12CC[C@@]3(C[C@@H]1[C@](C)(O)C(C)(C)C)[C@H]1Cc4ccc(O)c5c4[C@@]3(CCN1CC1CC1)[C@H]2O5 [Buprenorphine, buprenorphine, reference compound]
- MEMO SC CFA (Male Sprague-Dawley rats [2]; in vivo): 0.1 mg/kg
